Measured values as given in ChEMBL document CHEMBL3992544, “Novel 6-methoxycarbonyl indolinones bearing a pyrrole Mannich base moiety as angiokinase inhibitors” (Bioorg Med Chem, 2017).

What was measured:
[1] = molecular target: Platelet-derived growth factor receptor beta (Homo sapiens, UniProt P09619); assay: Inhibition of human N-terminal GST-tagged PDGFRbeta cytoplasmic domain (557 to 1106 residues) expressed in baculovirus expression system preincubated for 10 mins followed by FAM-labeled peptide substrate addition measured after 1 hr by mobility shift assay
Chain of Platelet-derived growth factor receptor beta (P09619 whole entry, the tested form may be a part): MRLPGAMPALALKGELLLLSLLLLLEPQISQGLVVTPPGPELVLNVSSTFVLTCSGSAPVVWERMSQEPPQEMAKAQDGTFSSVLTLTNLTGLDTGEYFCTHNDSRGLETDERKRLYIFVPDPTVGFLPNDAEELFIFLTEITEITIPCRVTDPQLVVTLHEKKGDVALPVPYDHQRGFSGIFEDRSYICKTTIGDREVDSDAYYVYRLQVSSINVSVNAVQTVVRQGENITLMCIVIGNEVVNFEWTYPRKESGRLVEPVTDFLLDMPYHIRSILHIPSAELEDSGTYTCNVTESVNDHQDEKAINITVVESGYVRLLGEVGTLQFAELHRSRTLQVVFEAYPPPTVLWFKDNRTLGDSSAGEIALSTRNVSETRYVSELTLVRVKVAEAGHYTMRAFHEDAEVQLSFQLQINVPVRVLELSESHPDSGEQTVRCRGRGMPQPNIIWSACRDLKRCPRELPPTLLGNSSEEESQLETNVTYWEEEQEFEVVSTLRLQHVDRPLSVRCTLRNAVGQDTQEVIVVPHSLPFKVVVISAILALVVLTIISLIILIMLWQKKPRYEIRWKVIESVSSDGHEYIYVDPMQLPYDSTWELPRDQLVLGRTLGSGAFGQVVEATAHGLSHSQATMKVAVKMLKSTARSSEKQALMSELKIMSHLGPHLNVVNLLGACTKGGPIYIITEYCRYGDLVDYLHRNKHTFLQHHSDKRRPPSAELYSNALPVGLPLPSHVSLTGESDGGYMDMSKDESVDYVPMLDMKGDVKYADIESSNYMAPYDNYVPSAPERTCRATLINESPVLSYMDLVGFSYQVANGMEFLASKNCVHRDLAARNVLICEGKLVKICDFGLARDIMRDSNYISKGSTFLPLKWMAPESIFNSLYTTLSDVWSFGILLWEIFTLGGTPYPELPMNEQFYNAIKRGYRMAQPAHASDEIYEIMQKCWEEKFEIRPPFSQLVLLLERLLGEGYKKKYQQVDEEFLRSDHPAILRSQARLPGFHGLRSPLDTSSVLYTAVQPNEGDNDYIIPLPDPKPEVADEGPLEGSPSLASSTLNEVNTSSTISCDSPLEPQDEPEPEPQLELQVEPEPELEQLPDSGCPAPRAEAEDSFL

SK-OV-3 = assay: Antiproliferative activity against human SKOV3 cells after 72 hrs by MTT assay; details: SK-OV-3, 72 h
[2] = molecular target: Vascular endothelial growth factor receptor 1 (Homo sapiens, UniProt P17948); assay: Inhibition of recombinant human GST-tagged VEGFR1 cytoplasmic domain (781 to 1338 residues) expressed in baculovirus expression system preincubated for 10 mins followed by FAM-labeled peptide substrate addition measured after 1 hr by mobility shift assay
Chain of Vascular endothelial growth factor receptor 1 (P17948 whole entry, the tested form may be a part): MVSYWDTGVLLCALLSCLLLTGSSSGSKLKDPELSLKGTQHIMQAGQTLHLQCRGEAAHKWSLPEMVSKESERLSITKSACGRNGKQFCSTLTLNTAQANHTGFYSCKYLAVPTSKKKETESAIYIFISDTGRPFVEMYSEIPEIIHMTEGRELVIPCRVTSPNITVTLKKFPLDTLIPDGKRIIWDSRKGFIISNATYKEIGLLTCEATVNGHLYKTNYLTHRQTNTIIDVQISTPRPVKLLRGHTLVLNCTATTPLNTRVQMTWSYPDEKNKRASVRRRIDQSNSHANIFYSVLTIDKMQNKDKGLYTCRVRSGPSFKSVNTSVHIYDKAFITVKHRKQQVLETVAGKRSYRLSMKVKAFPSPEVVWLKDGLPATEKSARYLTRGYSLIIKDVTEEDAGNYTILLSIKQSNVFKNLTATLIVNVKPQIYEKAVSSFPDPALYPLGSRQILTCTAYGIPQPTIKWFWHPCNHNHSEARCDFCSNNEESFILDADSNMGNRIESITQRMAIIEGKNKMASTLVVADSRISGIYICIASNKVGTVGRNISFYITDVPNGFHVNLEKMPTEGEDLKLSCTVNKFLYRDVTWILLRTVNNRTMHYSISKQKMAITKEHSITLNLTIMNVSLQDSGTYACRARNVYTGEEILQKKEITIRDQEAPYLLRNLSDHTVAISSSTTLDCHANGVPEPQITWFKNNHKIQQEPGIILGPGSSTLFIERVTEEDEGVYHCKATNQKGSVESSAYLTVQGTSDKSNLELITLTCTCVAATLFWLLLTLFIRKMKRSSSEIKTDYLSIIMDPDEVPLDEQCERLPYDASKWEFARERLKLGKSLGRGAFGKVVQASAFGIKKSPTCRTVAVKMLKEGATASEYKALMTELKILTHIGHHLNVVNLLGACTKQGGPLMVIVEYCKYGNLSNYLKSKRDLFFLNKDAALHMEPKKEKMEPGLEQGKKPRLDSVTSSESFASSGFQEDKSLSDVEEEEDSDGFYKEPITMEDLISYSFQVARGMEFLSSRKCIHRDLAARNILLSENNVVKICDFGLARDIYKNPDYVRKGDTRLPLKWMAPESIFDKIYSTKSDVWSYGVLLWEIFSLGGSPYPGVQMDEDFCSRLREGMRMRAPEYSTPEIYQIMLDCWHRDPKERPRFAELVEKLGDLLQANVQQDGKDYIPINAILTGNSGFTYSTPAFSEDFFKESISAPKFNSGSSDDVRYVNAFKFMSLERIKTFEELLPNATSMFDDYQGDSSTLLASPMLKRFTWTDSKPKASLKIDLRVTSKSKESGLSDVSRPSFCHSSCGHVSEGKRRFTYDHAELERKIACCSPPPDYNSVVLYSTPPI

HT-29 [3] = assay: Induction of apoptosis in human HT-29 cells after 48 hrs by acridine orange/ethidium bromide staining based confocal laser scanning microscopic method; type: functional, cell-based
[4] = molecular target: Fibroblast growth factor receptor 1 (Homo sapiens, UniProt P11362); assay: Inhibition of recombinant human GST-tagged FGFR1 cytoplasmic domain (398 to 822 residues) expressed in baculovirus expression system preincubated for 10 mins followed by FAM-labeled peptide substrate addition measured after 1 hr by mobility shift assay
Chain of Fibroblast growth factor receptor 1 (P11362 whole entry, the tested form may be a part): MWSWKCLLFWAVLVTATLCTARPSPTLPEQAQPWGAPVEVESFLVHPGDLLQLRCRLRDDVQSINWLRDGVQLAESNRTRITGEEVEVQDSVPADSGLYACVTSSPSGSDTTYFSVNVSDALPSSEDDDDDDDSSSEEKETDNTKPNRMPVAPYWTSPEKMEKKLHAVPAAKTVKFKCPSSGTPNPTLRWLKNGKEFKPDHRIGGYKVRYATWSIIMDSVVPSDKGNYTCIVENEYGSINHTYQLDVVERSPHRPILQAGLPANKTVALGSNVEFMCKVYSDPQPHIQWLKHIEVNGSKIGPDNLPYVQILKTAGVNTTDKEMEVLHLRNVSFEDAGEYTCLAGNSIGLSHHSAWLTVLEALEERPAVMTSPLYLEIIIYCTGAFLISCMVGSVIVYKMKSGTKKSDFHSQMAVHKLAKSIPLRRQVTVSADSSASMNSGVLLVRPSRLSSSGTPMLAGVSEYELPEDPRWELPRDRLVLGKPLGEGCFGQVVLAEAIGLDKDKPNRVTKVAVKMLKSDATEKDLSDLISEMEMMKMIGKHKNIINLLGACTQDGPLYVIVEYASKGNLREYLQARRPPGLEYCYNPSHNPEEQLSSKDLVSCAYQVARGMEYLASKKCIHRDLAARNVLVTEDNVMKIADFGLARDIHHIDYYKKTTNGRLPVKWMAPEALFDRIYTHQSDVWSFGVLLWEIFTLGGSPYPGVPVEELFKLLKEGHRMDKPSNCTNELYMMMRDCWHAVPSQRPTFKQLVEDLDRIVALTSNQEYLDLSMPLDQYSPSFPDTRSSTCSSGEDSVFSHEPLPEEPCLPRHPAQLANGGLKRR

HeLa = assay: Antiproliferative activity against human HeLa cells after 72 hrs by MTT assay
HT-29 [5] = assay: Antiproliferative activity against human HT-29 cells after 72 hrs by MTT assay; details: HT-29, 72 h

Row | SMILES | IC50 [1] | IC50 (SK-OV-3) | IC50 (HeLa) | IC50 (HT-29 [5]) | other results
1 | COC(=O)c1ccc2c(c1)NC(=O)/C2=C(\Nc1ccc(Cn2cccc2CN(C)C)cc1)c1ccccc1 | 29.8 nM |  |  |  | 
2 | COC(=O)c1ccc2c(c1)NC(=O)/C2=C(\Nc1ccc(-n2cccc2CN2CCNCC2)cc1)c1ccccc1 | 65.2 nM |  |  |  | 
3 | COC(=O)c1ccc2c(c1)NC(=O)/C2=C(\Nc1ccc(-n2cccc2CN(C)C)cc1)c1ccccc1 | 14.3 nM | 5.22 µM | 53.2 µM | 0.98 µM | IC50 [2]: 99.2 nM; Activity (HT-29 [3]): Dose-dependent effect; IC50 [4]: > 500 nM
4 | COC(=O)c1ccc2c(c1)NC(=O)/C2=C(\Nc1ccc(-n2cccc2CN2CCN(C)CC2)cc1)c1ccccc1 | 83.2 nM | 25.9 µM | 30.4 µM | 3.12 µM | 
5 | COC(=O)c1ccc2c(c1)NC(=O)/C2=C(\Nc1ccc(N(C)C(=O)CN2CCN(C)CC2)cc1)c1ccccc1 [NINTEDANIB] |  | 28.8 µM | 51.6 µM | 4.9 µM | 
6 | COC(=O)c1ccc2c(c1)NC(=O)/C2=C(\Nc1ccc(-n2cccc2CN2CCCCC2)cc1)c1ccccc1 | 45.5 nM |  |  |  | 
7 | COC(=O)c1ccc2c(c1)NC(=O)/C2=C(\Nc1ccc(-n2cccc2CN2CCCC2)cc1)c1ccccc1 | 27.1 nM |  |  |  | 
8 | COC(=O)c1ccc2c(c1)NC(=O)/C2=C(\Nc1ccc(Cn2cccc2CN2CCN(C)CC2)cc1)c1ccccc1 | 67.8 nM |  |  |  | 
9 | CCN(CC)Cc1cccn1-c1ccc(N/C(=C2\C(=O)Nc3cc(C(=O)OC)ccc32)c2ccccc2)cc1 | 31.4 nM |  |  |  | 
